Key:
p-AMPK (Thr172) [1] = experiment: AMPK activation by p-AMPK (Thr172) Western blot in brain cancer cell lines; format: cell-based, human; conditions: 10 μM, 12 hours, compared to untreated group
Experimental: (§1) [3-2] The three breast cancer cell lines (4T1, BT549, and MDA-MB-231) of Experimental Method 1 were treated with each of the compound of Production Example 6 and 13 compounds, including the compounds of Production Examples 1 to 5 and 8 to 15 having a similar structure (YE-01, 02, 03, 04, 05, 08, 09, 10, 11, 12, 13, 14 and 15), at a concentration of 10 μM, and then cultured for 24 hours. In addition, each of two types of gastric cancer cell lines, brain cancer cell lines and pancreatic cancer cell lines was treated with the compound of Production Example 6 or the compound of Production Example 8 having a similar structure at a concentration of 10 μM and then cultured for 12 hours. Thereafter, the cells were harvested and lysed in RIPA buffer, and the protein was electrophoresed by SDS-PAGE, and then the expression level of the protein was analyzed using antibodies specific for AMPK and phospho-AMPK (Thr172). GAPDH or β-actin was used as a loading control for protein quantification.

MDA-MB-231 cell line = experiment: Clonogenic assay; format: cell-based, human; conditions: MDA-MB-231, 10 μM; FIG. 2B
Experimental: (§2) The breast cancer cell line of Experimental Method 1 was dispensed into a 6-well plate at a density of 1 to 2×10^3 cells/well. After the cells were sufficiently attached, they were treated with the compound of Production Example 6 at a concentration of 0 to 30 μM and cultured for 10 days to 14 days. Next, the cultured cells were fixed with 4% formaldehyde and stained with 1% crystal violet, and the colonies were counted under a microscope.

BT549 cell line = experiment: Clonogenic assay; format: cell-based, human; conditions: BT549, 10 μM; FIG. 2B
Experimental: as §2

p-AMPK (Thr172) [2] = experiment: AMPK activation by p-AMPK (Thr172) Western blot in 4T1 cells; format: cell-based, mouse; conditions: 24 hours
Experimental: (§3) [3-1] The breast cancer cell line of Experimental Method 1 above was treated with the compound of Production Example 6 at a concentration of 0 to 30 μM, and then cultured for 24 hours. Thereafter, the cells were harvested and lysed in RIPA buffer, and the protein was electrophoresed by SDS-PAGE, and then the expression level of the protein was analyzed using antibodies specific for AMPK and phospho-AMPK (Thr172). GAPDH or β-actin was used as a loading control for protein quantification.
as §1

[3] = system: 4T1-luc xenograft (flank, s.c.); experiment: Tumor regression in xenograft animal model; format: in vivo, mouse; conditions: 4 mg/kg tail vein (IV) once every 3 days, 6 times; compared to Vehicle; FIG. 8A, 8B
Description: (§4) After 4-week-old athymic nude mice (female) were purchased, only healthy mice were selected while the mice were adapted to the environment of the animal breeding room for 7 days. For identification of each mouse, the ears were marked using an ear punch. In addition, the breeding box was identified by attaching a mouse identification card describing the test number, test substance name, test item, receipt date, test date, test content, and the person in charge of the test. The environment of the animal breeding room was maintained at a temperature of 22±3° C., a relative humidity of 50±20%, 10 to 15 ventilations/hour, a 12-hour light (8:30 to 20:30)/dark cycle, and an illuminance of 150 to 300 lux. In addition, the animals were fed feed and drinking water during the breeding period, and quarantined during the acclimatization and testing periods. […]
(§5) During a period ranging from the day the mouse breast cancer cell line 4T1-luc was injected to the end of the experiment (dissection date), the tumor volume was measured every day. […] In order to confirm the tumor regression effect, the volume of the tumor was measured before administration of the compound of Production Example 6, and at day 28 after the first administration of the compound of Production Example 6, the animals were euthanized, and the primary tumors were excised and their volumes were compared.

[4] = Body weight / toxicity in xenograft animal model; format: in vivo, mouse; conditions: 4 mg/kg tail vein (IV) once every 3 days, 6 times; FIG. 8C
Description: as §4, §5

p-AMPK (Thr172) [5] = experiment: AMPK activation by p-AMPK (Thr172) Western blot in pancreatic cancer cell lines; format: cell-based, human; conditions: 10 μM, 12 hours, compared to untreated group
Experimental: as §1

p-AMPK (Thr172) [6] = experiment: AMPK activation by p-AMPK (Thr172) Western blot in MDA-MB-231 cells; format: cell-based, human; conditions: 24 hours
Experimental: as §3, §1

[7] = system: EMT protein markers α-SMA, Vimentin, ZEB-1 and Slug; experiment: EMT protein marker Western blot, TGF-β1-treated 4T1 cells; format: cell-based, mouse; conditions: 4T1, with TGF-β1; FIG. 7A
Experimental: The culture medium of the breast cancer cell line of Experimental Method 1 was replaced with a serum-free medium. Then, the cells were treated with 2 ng/mL of TGF-β1 and the compound of Preparation Example 6 and cultured for 20 to 24 hours. Thereafter, as described in Experimental Method 3, the expression level of the protein was measured using an antibody specific for the EMT-related protein.

COc1ccc(OC)c(/C=C/C(=O)c2ccc(NS(=O)(=O)c3ccc(Cl)cc3)cc2)c1 [Production Example 6, (E)-4-chloro-N-(4-(3-(2,5-dimethoxyphenyl)acryloyl)phenyl)benzenesulfonamide]
expression of p-AMPK (p-AMPK (Thr172) [1]): increased | colony formation (MDA-MB-231 cell line): significantly reduced | colony formation (BT549 cell line): significantly reduced | phospho-AMPK protein (p-AMPK (Thr172) [2]; 4T1, 0 to 30 μM, FIG. 5): increased in a concentration-dependent manner | p-AMPK level (p-AMPK (Thr172) [2]; 4T1, 10 μM, FIG. 3B): effectively increased | volume of the tumor [3]: decreased | weight loss depending on the breeding time [4]: no weight loss | expression of p-AMPK (p-AMPK (Thr172) [5]): increased | phospho-AMPK protein (p-AMPK (Thr172) [6]; MDA-MB-231, 0 to 30 μM, FIG. 5): increased in a concentration-dependent manner | p-AMPK level (p-AMPK (Thr172) [6]; MDA-MB-231, 10 μM, FIG. 3B): effectively increased | Slug protein [7]: decreased | Vimentin protein [7]: decreased | ZEB-1 protein [7]: decreased | α-SMA protein [7]: decreased

— patent publication US12447137B2, “Composition for prevention, amelioration, or treatment of cancer” (EWHA UNIVERSITY—INDUSTRY COLLABORATION FOUNDATION, priority 2019, dated 2025)
